Experimental data reported in patent US20130129675A1, “INTERFERON THERAPIES IN COMBINATION WITH BLOCKADE OF STAT3 ACTIVATION” (BOARD OF REGENTS, THE UNIVERSITY OF TEXAS SYSTEM, priority 2009, published 2013).

Experiments:
[1] = test system: B16 target cells (CD3+CD8+ T effector cells); experiment: CD8+ T cell cytotoxicity assay against melanoma cells; assay type: cell-based, mice; conditions: WP1193 2 μM, IFN-α 20 ng/ml, 48 h, control 10.8
Description: Splenocytes were prepared as described above. NK1.1+CD3− NK effector cells or CD3+CD8+ T effector cells were sorted from splenocytes on a FACSAria Cell Sorter (BD Biosciences) with FITC-conjugated anti-mouse NK1.1 (eBioscience), PE-conjugated anti-CD3, and allophycocyanin (APC)-conjugated anti-CD8 antibodies (Miltenyi Biotec, Auburn, Calif.). B16 target cells were prepared as described above. The ratio of NK1.1+CD3− NK effector cells or CD8+ T effector cells to B16 target cells was 10:1 and 5:1, respectively. In the presence of NK1.1+CD3− NK cells or CD8+ T cells, treatment groups consisted of B16 target cells alone; B16 cells with 2 μM of WP1193; B16 cells with 20 ng/ml of IFN-α; B16 cells with 2 µM of WP1193 and 20 ng/ml of IFN-α. After 48 hours of incubation, the CFSE-labeled B16 melanoma cells were removed from the plates with trypsin and analyzed by FACS. Then, B16 cells were stained with PI (BD Biosciences) to distinguish viable cells from nonviable cells. B16 cells that were stained with CFSE and PI were considered nonviable. Flow cytometric acquisition of the B16 target cells was performed with a FACSCalibur flow cytometer (BD Biosciences), and data analysis was performed using FlowJo software (TreeStar). […]

[2] = test system: NK1.1+ NK cells from splenocytes; experiment: NK cell activating receptors (flow cytometry); assay type: cell-based, mice; conditions: WP1193 2 μM, IFN-α 20 ng/ml, 24 hours (FIGS. 6C and 6D)
Description: Spleens from 4- to 6-week-old female mice were harvested and disassociated into a single-cell suspension as described above. Splenocytes were seeded at a density of 4×10^6 cells/well in 24-well culture plates and cultured with the RPMI 1640 medium in absence or presence of WP1193 (2 μM) and/or INF-α (20 ng/ml) for 24 hours. Afterwards, the cells were harvested and washed twice in PBS with 5% FCS, resuspended in staining buffer and labeled with FITC- or PE-conjugated anti-mouse NK1.1 (eBioscience, San Diego, Calif.) to identify the NK population. […] Following incubation, the cells were washed twice with FACS buffer and then analyzed with a BD FACSCalibur with gates set for viable splenocytes.
Because we observed NK and CD8+ T cell-mediated anti-tumor cytotoxicity were enhanced with combinational therapy, to ascertain if either IFN-α, WP1193 or both were augmenting the expression of MHC or NK activating receptors or their ligands, splenocytes and B16 cells were treated with RPMI 1640 medium (control), WP1193 (2 μM), IFN-α (20 ng/ml), or IFN-α (20 ng/ml)+WP1193 (2 μM) for 24 hours. The NK-activating ligands (Rae-1, H60 and CD155) and MHC (I and II) on B16 cells and the NK-activating receptors (NKG2D, KLRD1, NKp46 and DNAM-1) on NK1.1+ NK cells were analyzed by flow cytometric analysis.

[3] = test system: intracerebral B16 melanoma / LMD; experiment: Etiology of death (LMD or tumor progression) in intracerebral B16 model; assay type: in vivo, C57BL/6J mice; conditions: for animals with LMD at death: autopsy at treatment failure, control 75%
From the text: Both the control group (n=8) and in those treated with a sub-therapeutic dose of WP1193 (n=9) had macroscopic evidence of LMD, 75% and 67%, respectively, (Data not shown). In contrast, in those mice treated with IFN-α (n=6) or the combination of IFN-α and WP1193 (n=4), only 17% in the former and none of the animals treated with the combination died of LMD (FIG. 5). As would be expected, in a sub-analysis within each treatment group, mice that developed LMD died sooner than did those that died of tumor. Specifically, in the control group, median survival was 16.7±0.7 days in those mice that developed LMD and 18.5±1.5 days in those that died of tumor. Furthermore, in the sub-therapeutic WP1193 group, median survival was 17.7±0.3 days in mice that developed LMD and 20±2.1 days in those that died of tumor. In contrast, within the IFN-α treatment group, the median survival of mice with progressive tumor was 25.8±2.5 days, which was further increased to 29.7±5.5 days in the combination treatment group. Within individual treatment groups there was insufficient power to draw statistically meaningful conclusions; however when we assessed all mice who died of LMD, the median survival was 16.9±0.4 days compared with 24.7±2 days for mice dying of tumor progression (P=0.0006), indicating this model system conforms to the negative prognostic influence of LMD observed in human patients.

[4] = sub-analysis within treatment group

Row | Molecule | % of B16 Killimg [1] [%] | NKG2D, KLRD1, NKp46 and DNAM-1 on NK cells [2] | animals with LMD at death [3] [%] | median survival in mice that died of tumor [3, 4] [days] | median survival in mice that developed LMD [3, 4] [days]
1 | IFN-α | 14.3 | did not appear to be up-regulated | 17 | 25.8 ± 2.5 | –
2 | N#C/C(=C\c1cccc(Br)n1)C(=O)N[C@H](c1ccccc1)C1CC1 [WP1193, (S,E)-3-(6-bromopyridin-2-yl)-2-cyano-N-(cyclopropyl(phenyl)methyl)acrylamide] | 11.2 | did not appear to be up-regulated | 67 | 20 ± 2.1 | 17.7 ± 0.3
